Measured values reported in US20210379062A1, “The use of a H3R inverse agonist for the treatment of excessive daytime sleepiness associated with parkinson's disease (PD)” (Novartis AG, priority 2018, published 2021).

Columns and labels:
H3 receptor = test: Ex vivo receptor occupancy assay in rat frontal cortex; conditions: rats; for RO: 10 mg/kg oral
Experimental: Male Sprague-Dawley rats (from Shanghai SLAC Laboratory Animal CO. LTD) at the age of 5-6 weeks were used. The animals were housed in a temperature and humidity-controlled environment on a 12 h light/dark cycle with food and water available ad libitum. All the procedures were approved by Institutional Animal Care and Use Committee of Chempartner Co., LTD (IACUC Protocol NO: A998HL0076).
Compounds were dissolved in 50 mM citrate buffer (pH 3.5), or saline. The compound was then diluted stepwise to the final concentration with vehicle. Animals were dosed by p.o. or i.v. in 1 ml/kg bodyweight.
At each time point, rats were decapitated immediately. Intact brain was removed, immersed and washed in pre-cooled saline. After drying with filter paper, frontal cortex was dissected with a double-blade with an about 30° angle starting at ⅓ of anterior rat brain (weight of most brain tissues around 70±10 mg). Brain tissue was transferred into a pre-weighed tube with homogenizer beads. The tubes were weighed again and the tissue net weight was recorded. Tissue sampling was done on ice with intervals of 1 min. Then, 50 mM HEPES (Gibco® by Life Technologies) buffer were added (equivalent to 3.75 μl/mg tissue weight) followed by homogenization (frequency 30/sec for 20 sec, TissueLyser, Quiagen).
The crude homogenate samples of rat frontal cortex were used to measure H3 receptor binding as described above with [^3H]—N-α-methylhistamine as radioligand. The protein concentration of each sample was determined by Pierce BCA Protein Assay Kit (Thermo).
The cortical homogenate was added to a 96-well plate containing [^3H]—N-α-methylhistamine (0.1 nM), in a volume of 0.2 ml (final protein concentration 4 μg/μl), incubated at 28° C. for 15 min and the reaction was stopped by rapid filtration using a filtration plate (Millipore multiscreen GF/B plate). The filters were washed three times with ice-cold wash buffer (50 mM Tris, pH 7.5) and 250 μl of Microscint-40 were added followed by determination of the bound radiolabel with a Wallac Microbeta Trilux 2450 (Perkin Elmer). Nonspecific binding was determined in the presence of 10 μM thioperamide. Each data point was obtained from a total of at least four animals. The inhibition of specific [^3H]NAMH binding, calculated as relative to vehicle-treated samples, was determined to provide an indication of receptor occupancy by the compound. The dose-dependent % RO and time course were analyzed using GraphPad Prism. The dose response was fit using GraphPad Prism: log(inhibitor) vs. response with variable slope.

[1] = tested on: tele-methylhistamine (tMeHA); test: Ex vivo PD determination: brain tele-methylhistamine time course in rats; set-up: species or system rat; conditions: 10 mg/kg oral
Experimental: Male Sprague-Dawley rats (Shanghai SLAC Laboratory Animal Co. LTD) of 6-7 weeks age were used. Animals were housed in a temperature and humidity-controlled environment on a 12 h light/dark. All animals had free access to food and water. All procedures were approved by Institutional Animal Care and Use Committee of ChemPartner Co., LTD (IACUC Protocol NO: A998HL0002).
For bioanalysis of brain tissue tele-methylhistamine samples were further processed.
One aliquot of the stock solution was diluted using ethanol/phosphate buffer pH 7.4 (85:15, v/v) to achieve a series working solutions. The brain homogenate was centrifuged at 12000 rpm for 5 min at 4° C. Then 10 μL supernatant of the brain homogenate sample was added to 60 μL internal standard (d3-1-methyl-histamine, 20 ng/mL). The mixture was vortexed for 2 min and centrifuged at 12000 rpm for 5 min at 4° C. Finally, 60 μL supernatant was added and 3 μL supernatant was injected into LC-MS/MS for analysis (Agilent 6410, triple quadrupole mass spectrometer, Mobile phase A: H2O— 0.1% NH3, Mobile phase B: methanol— 0.1% NH3, Column: Ultimate XB-C18 (2.1×50 mm, 5 μm, Flow rate: 0.45 mL/min, temperature: 40° C.).

[2] = PK model (two-compartment, NONMEM) fitted to Phase I SAD/MAD concentrations; assay type: in vivo, human
Experimental: PK data (drug concentration over time) from Part 1 and Part 2 of the Phase I study were used in the development of the model: • 1) Part 1 is the Single Ascending Dose part; 8 different cohorts were used, with each cohort composed of 6 active subjects and 2 placebo subjects. The dose amounts used in the 8 cohorts were 0.3, 1, 3, 10, 30, 100, 300 and 800 mg. Dosing was performed at time equal to 0 hours. Additional data from the Part 3 of the Phase I study (Mechanistic biomarker study, 100 mg single dose) were lumped with this group. • 2) Part 2 is the Multiple Ascending Dose part; 4 different cohorts were used, with each cohort composed of 9 active subjects and 3 placebo subjects. The dose amounts used in the 4 cohorts were 10, 30, 50 and 100 mg. Dosing was performed once a day (in the morning) at times equal to 0, 2, 3, 4, 5, 6, 7, 8, 9, 10, 11, 12, 13, 14, 15 days.
The analysis was performed using NONMEM VII version 3 (Icon Development Solutions, Ellicott City, Md., USA), utilizing the MODESIM high performance computing environment. Pirana software was used for model editing and model submission to the cluster for running. All model building was performed using the first order conditional estimation with interaction (FOCEi) method.
A two-compartment model with combined zeroth-order and first-order absorption was used to fit the Compound (I) concentrations. The disposition kinetics were modeled using a parameterization involving apparent oral clearance (CL/F), apparent central volume (Vc/F), apparent inter-compartment clearance (Q/F), and apparent peripheral volume (Vp/F). The duration of zero-order absorption (D), a first order absorption rate constant (Ka) and an absorption delay parameter (Lag) were used to characterize the absorption process.
Between-subject variability in pharmacokinetic parameters Vc/F, CL/F, Vp/F and Ka was modeled using multiplicative exponential random effects of the form:
Residual variability was modeled using a proportional error model: […]

Cn1nc(N2CCC(OC(=O)N3CCN(C4CCC4)CC3)CC2)ccc1=O [Compound (I), 1-(1-methyl-6-oxo-1,6-dihydropyridazin-3-yl)piperidin-4-yl 4-cyclobutylpiperazine-1-carboxylate]
RO (H3 receptor; 1 h time point (initial RO)): 95%
RO (H3 receptor; 4 h): 50%
RO (H3 receptor; 4 h, listed as LML134): 39%
RO (H3 receptor; 8 h): 0%
RO (H3 receptor; 8 h, listed as LML134): almost not RO was detectable
dose that resulted in H3 receptor occupancy of 80-90% (H3 receptor; oral dosing, 1 h after compound administration): 10 mg/kg
time at which tMeHA increase starts [1]: 30 min
time of tMeHA peak [1]: 2 h
tMeHA level at 8 h ([1]; 8 h): stayed slightly elevated
effect on tMeHA levels ([1]; brain): increased
duration of histamine release after compound administration ([1]; deconvolution of the PD data): about 2 h
CL/F (apparent oral clearance) ([2]; PK model estimate): 22.8 L/h
D (duration of zero-order absorption) ([2]; PK model estimate): 0.108 h
Ka (first-order absorption rate constant) ([2]; PK model estimate): 2.44 h⁻¹
Lag (absorption delay) ([2]; PK model estimate): 0.214 h
Q/F (apparent inter-compartment clearance) ([2]; PK model estimate): 1.26 L/h
Residual Unexplained Variability ([2]; PK model estimate): 34.8%
VC/F (apparent central volume) ([2]; PK model estimate): 121 L
VP/F (apparent peripheral volume) ([2]; PK model estimate): 18.4 L
Omega CL/F ([2]; between-subject variability): 40.37 % CV
Omega Ka ([2]; between-subject variability): 145 % CV
Omega Vc/F ([2]; between-subject variability): 23.71 % CV
Omega Vp/F ([2]; between-subject variability): 46.48 % CV
